The source made the active and inactive calls. The calls are words filed in the database; no cut-off is given here.
Key:
[1] = target: Integrin alpha-4 (Homo sapiens) (UniProt P13612); assay: Inhibition of alpha4 integrin-dependent cell migration in CHO cells expressing alpha4 integrin after 12 hrs by wound healing assay; type: cell-based
Jurkat = assay: Inhibition of human Jurkat T cell motility after 4.5 hrs by modified Boyden chamber assay; type: functional, cell-based
[2] = target: T1, Gamma-parvin (Homo sapiens) (UniProt Q9HBI0); assay: Binding affinity to gamma-parvin in human Jurkat cells at 100 uM by Western blot analysis; type: cell-based
T1 sequence (whole entry): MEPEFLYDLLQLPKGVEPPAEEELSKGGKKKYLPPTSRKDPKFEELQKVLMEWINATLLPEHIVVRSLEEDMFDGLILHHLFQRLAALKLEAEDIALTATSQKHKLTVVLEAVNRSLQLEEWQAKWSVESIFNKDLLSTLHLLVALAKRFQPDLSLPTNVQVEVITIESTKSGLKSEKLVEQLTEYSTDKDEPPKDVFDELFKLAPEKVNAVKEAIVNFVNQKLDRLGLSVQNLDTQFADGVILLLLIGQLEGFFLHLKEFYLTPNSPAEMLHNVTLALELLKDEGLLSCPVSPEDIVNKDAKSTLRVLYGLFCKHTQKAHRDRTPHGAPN

[3] = target: Adenosine kinase (Homo sapiens) (UniProt P55263); assay: Binding affinity to ADK in human Jurkat cells at 100 uM by Western blot analysis; type: cell-based
[4] = target: Integrin alpha-4 (Homo sapiens) (UniProt P13612); assay: Inhibition of alpha4 integrin-dependent cell migration in PMA-stimulated human Jurkat cells at 1 or 5 uM after 4.5 hrs; type: cell-based; parameters: scale not given: the % may be the effect or the level left
[5] = target: Integrin alpha-4 (Homo sapiens) (UniProt P13612); assay: Inhibition of alpha4 integrin-dependent cell migration in SDF1-alpha-stimulated human Jurkat cells at 1 or 5 uM after 4.5 hrs; type: cell-based; parameters: scale not given: the % may be the effect or the level left
[6] = target: Integrin alpha-4 (Homo sapiens) (UniProt P13612); assay: Inhibition of alpha4 integrin-dependent cell migration in PMA-stimulated human U937 cells at 1 or 5 uM after 4.5 hrs; type: cell-based; parameters: scale not given: the % may be the effect or the level left; settings: U-937
[7] = target: Integrin alpha-4 (Homo sapiens) (UniProt P13612); assay: Inhibition of alpha4 integrin-dependent cell migration in SDF1-alpha-stimulated human U937 cells at 1 or 5 uM after 4.5 hrs; type: cell-based; parameters: scale not given: the % may be the effect or the level left; settings: U-937

Chain of Integrin alpha-4 (Homo sapiens) (P13612 whole entry): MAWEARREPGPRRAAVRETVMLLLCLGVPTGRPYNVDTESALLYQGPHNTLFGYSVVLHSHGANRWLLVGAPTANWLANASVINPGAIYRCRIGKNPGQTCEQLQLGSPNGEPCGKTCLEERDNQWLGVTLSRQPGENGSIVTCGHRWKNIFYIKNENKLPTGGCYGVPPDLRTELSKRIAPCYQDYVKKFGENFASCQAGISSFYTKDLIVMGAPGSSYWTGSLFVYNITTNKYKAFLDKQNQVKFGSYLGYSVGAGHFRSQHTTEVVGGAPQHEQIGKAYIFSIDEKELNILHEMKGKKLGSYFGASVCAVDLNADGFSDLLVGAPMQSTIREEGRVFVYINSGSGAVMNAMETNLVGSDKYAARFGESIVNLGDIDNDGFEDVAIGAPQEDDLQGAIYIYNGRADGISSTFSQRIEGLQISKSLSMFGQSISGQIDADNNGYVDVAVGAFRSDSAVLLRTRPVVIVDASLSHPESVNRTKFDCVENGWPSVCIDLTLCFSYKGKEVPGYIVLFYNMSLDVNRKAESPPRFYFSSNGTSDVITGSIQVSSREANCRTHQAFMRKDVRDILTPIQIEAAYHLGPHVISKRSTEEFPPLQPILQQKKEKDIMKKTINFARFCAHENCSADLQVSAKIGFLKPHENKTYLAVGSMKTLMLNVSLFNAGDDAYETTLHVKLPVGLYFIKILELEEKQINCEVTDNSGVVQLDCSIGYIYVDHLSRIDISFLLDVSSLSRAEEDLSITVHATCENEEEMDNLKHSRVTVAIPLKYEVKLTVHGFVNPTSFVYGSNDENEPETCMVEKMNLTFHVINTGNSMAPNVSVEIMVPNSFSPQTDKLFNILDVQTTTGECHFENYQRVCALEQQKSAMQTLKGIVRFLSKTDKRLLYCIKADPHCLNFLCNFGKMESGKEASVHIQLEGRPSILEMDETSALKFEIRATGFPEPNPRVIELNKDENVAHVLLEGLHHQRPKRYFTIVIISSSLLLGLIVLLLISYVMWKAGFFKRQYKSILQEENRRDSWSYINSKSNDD
Chain of Adenosine kinase (Homo sapiens) (P55263 2-362 limits assumed): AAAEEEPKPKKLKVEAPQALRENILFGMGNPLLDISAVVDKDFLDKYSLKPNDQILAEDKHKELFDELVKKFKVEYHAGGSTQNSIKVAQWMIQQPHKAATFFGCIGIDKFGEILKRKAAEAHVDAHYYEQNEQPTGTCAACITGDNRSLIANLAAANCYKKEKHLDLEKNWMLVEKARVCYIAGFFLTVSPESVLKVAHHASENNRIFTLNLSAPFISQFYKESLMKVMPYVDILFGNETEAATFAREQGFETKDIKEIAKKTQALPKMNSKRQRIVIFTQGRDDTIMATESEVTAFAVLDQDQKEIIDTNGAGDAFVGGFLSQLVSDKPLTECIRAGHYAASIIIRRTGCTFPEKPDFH

SMILES: Nc1ccc(-c2cc3c(Nc4cccc(Cl)c4)ncnc3[nH]2)cc1
- Activity [1]: Dose-dependent effect
- IC50 (Jurkat): 500 nM
- Activity [2]: Active
- Activity [3]: Active
- Activity [4]: 40%
- Activity [5]: 40%
- Activity [6]: 40%
- Activity [7]: 40%
